The text below walks through data of patent US10704056B2, “Constitutively active ABA receptor mutants” (The Regents of the University of California, priority 2011, dated 2020).

Test [1] has as its target T1, PYR1 (Arabidopsis thaliana, UniProt O49686).
T1 construct: expressed in transfected cells; host or cells: S. cerevisiae strain Y190
T1 sequence (O49686 1-191): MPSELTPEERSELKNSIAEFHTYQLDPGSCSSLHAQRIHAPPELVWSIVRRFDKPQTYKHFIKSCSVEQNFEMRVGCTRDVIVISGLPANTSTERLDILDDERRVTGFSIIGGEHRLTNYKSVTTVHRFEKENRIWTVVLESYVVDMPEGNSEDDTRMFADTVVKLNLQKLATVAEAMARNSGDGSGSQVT
T1 sequence (Q9CAJ0 23-511 partner): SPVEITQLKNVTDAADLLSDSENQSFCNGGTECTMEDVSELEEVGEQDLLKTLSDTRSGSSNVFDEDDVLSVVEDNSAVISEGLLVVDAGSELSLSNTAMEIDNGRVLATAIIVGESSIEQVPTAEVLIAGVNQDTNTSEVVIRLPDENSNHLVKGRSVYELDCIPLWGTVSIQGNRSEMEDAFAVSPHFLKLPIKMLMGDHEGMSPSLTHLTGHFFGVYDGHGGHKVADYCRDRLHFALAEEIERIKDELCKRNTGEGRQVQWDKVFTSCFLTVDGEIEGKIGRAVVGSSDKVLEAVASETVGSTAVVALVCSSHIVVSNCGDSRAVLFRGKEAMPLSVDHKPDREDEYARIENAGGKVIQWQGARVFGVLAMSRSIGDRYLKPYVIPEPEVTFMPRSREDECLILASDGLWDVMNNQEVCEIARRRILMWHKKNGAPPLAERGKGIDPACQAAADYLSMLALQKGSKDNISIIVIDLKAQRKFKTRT
In words: Yeast two-hybrid wild-type PYR1-HAB1 interaction with added ABA. It counts as cell-based. Particulars: wild-type PYR1, 10 μM ABA. Here is the method:
29 of 741 PYR1 mutants constructed, located in 10 different residues, increase the interaction between PYR1 and HAB1 in the absence of ABA, as measured using the yeast two hybrid assay (upper left panel). […] Each graph includes control wild-type PYR1 protein tested in the absence (diamonds) and presence (squares) of 10 μM ABA. Specific mutant proteins (triangles) were tested in the absence of ABA. […] Plotted in each graph is PP2C activity, expressed as % of control, which is the PP2C activity measured in the absence of ABA or receptor protein.
To define sites that can be mutated to improve interactions between PYR/PYL receptors and PP2Cs, we conducted saturation mutagenesis on 39 residues in PYR1 that normally contact ABA (i.e., are within the ligand-binding pocket of PYR1) and/or PP2Cs (i.e., are within the PP2C binding interface). All 741 single-mutant variants possible at these functionally critical locations were constructed and then assayed for PP2C interactions using a yeast two-hybrid based assay. Saturation mutagenesis is a method that involves the construction of all possible amino acid variants at a given site (i.e., the generation of all 19 substitution mutants per site). […]

For test [2], the target named is T2, PYL5 (Arabidopsis thaliana, UniProt Q9FLB1).
T2 sequence (Q9FLB1 1-203): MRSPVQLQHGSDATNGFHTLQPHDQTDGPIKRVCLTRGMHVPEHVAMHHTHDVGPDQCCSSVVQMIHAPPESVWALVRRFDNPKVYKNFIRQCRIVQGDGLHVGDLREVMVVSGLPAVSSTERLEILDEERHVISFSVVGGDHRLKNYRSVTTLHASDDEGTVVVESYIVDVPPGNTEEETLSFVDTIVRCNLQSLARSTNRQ
Particulars: cited from earlier work.

In test [3] the test system is ABA-responsive gene transcription. The following applies: in vivo; cited from earlier work.
Test [4] has as its target T3, PYL1 (Arabidopsis thaliana, UniProt Q8VZS8).
T3 sequence (Q8VZS8 1-221): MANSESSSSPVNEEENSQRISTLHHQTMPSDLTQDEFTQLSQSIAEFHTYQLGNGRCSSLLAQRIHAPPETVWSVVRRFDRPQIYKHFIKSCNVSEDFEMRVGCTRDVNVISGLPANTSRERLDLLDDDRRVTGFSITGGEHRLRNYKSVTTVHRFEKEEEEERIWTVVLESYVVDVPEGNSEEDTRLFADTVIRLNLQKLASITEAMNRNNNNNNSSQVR
Particulars: cited from earlier work.

The target in test [5] is T4, PYR1 (Arabidopsis thaliana, UniProt O49686).
T4 sequence (O49686 1-191): T1 sequence (O49686 1-191)
Particulars: cited from earlier work.

Test [6] concerns the target T5, PYL2 (Arabidopsis thaliana, UniProt O80992).
T5 sequence (O80992 1-190): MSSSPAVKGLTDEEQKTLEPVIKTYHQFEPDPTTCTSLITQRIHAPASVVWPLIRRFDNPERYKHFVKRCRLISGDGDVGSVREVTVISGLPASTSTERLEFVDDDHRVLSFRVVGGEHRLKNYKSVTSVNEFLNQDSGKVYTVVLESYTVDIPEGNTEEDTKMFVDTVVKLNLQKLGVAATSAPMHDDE
Particulars: cited from earlier work.

Test [7] concerns the target T6, HAB1 (Arabidopsis thaliana, UniProt Q9CAJ0).
T6 construct: expressed in transfected cells; host or cells: S. cerevisiae strain Y190
T6 sequence (Q9CAJ0 1-511): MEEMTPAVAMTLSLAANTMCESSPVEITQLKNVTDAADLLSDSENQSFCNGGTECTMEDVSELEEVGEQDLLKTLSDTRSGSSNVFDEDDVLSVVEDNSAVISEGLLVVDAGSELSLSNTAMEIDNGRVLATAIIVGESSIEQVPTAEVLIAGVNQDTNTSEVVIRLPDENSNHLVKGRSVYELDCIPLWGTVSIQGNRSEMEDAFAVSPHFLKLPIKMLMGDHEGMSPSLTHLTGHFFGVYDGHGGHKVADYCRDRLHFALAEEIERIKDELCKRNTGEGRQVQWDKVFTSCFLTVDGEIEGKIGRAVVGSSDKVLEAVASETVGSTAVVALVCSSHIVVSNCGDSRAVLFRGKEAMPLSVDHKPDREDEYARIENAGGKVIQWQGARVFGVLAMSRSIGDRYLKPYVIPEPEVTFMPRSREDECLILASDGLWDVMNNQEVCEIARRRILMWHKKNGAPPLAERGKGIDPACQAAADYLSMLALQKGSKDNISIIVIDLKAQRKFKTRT
In words: Yeast two-hybrid PYR1 mutant-HAB1 interaction assay (X-gal staining) in the absence of ABA. Particulars: no ABA. It counts as cell-based. The source says: To define sites that can be mutated to improve interactions between PYR/PYL receptors and PP2Cs, we conducted saturation mutagenesis on 39 residues in PYR1 that normally contact ABA (i.e., are within the ligand-binding pocket of PYR1) and/or PP2Cs (i.e., are within the PP2C binding interface). All 741 single-mutant variants possible at these functionally critical locations were constructed and then assayed for PP2C interactions using a yeast two-hybrid based assay. Saturation mutagenesis is a method that involves the construction of all possible amino acid variants at a given site (i.e., the generation of all 19 substitution mutants per site). We focused mutagenesis efforts on PYR1 because it is a well-characterized member of the PYR/PYL receptor family and has extensive structural data on which to guide mutagenesis studies, although it should be noted that the sites targeted display high sequence conservation among the PYR/PYL receptors (FIG. 1). Moreover, PYR1 is well suited for functional studies because its low basal activity allows its activation status to be studied using a yeast-based two-hybrid assay in which wild-type PYR1 will only bind to the PP2C HAB1 (or other PP2Cs) when the appropriate yeast cells are grown in the presence of ABA. […]

Test [8] deals with aba2-1 mutant seeds. In words: Germination of aba2-1 background seeds on paclobutrazol or NaCl. The following applies: 35S-driven transgene, germination 72 hours. The format is in vivo, Arabidopsis. An excerpt:
As a further test of the ability of PYL2^CA3 to activate ABA signaling in vivo, we examined the ability of this allele to revert phenotypes caused by ABA deficiency, reasoning that effective activation of the ABA pathway should suppress phenotypes observed in the aba2 mutant. […] To test this, we examined the germination of various genotypes on paclobutrazol, an inhibitor of GA biosynthesis. Wild-type seed germination is blocked by paclobutrazol treatment but aba2 mutants germinate due to defects in ABA-induced seed dormancy. We also examined the germination of various genotypes in the presence of NaCl, which, like paclobutrazole, inhibits seed germination in an ABA- and aba2-dependent manner (Gonzalez-Guzman M. et al. (2002) Plant Cell 14(8):1833-1846; Leon-Kloosterziel K M, et al. (1996) Plant J 10 (4):655-661). […] Thus, expression of PYL2^CA3 in developing seeds is sufficient to activate an ABA-dependent physiological process despite the depleted ABA levels present in the aba2 background.
Germination tests on paclobutrazol (Wako Chemicals, Japan) and NaCl were conducted as following. Columbia, aba2-1, aba2-1; 35S::GFP-PYL2 and aba2-1; 35S::GFP-PYL2″^3 seeds were surface sterilized and plated onto ⅓ MS agar media containing 25, 50 or 100 μM paclobutrazol or 0, 50, 200, 250 mM NaCl. Control wells contained ⅓ MS agar and 0.1% DMSO, the carrier solvent for paclobutrazol. The seeds were stratified for four days in darkness and then transferred to continuous illumination at room temperature (23° C.). Germination was assayed after 72 hours; seeds showing radicals at least ½ seed length or greater were scored as positive. Each experiment was performed in triplicate; experiments were performed on seeds that were ˜6-months post-harvest.

The subject of test [9] is Columbia seeds. In words: Seed dormancy / germination assay of 35S-driven transgenic lines, stratified vs unstratified. It counts as in vivo, Arabidopsis. Particulars: 35S-driven overexpression in wild-type Columbia background. Here is the method:
To investigate the effects of the PYL2^CA3 allele, we performed a number of physiological assays on wild-type and aba2-1 genotypes. Columbia (Col), 35S::PYL2, and 35S::PYL2^CA3 seed samples were divided into two portions; one portion was stratified on ⅓ MS plates for 6 days at 4° C. and the second portion was plated six days later ⅓ MS plates. Both samples were the transferred to room temperature (23° C.) and incubated in darkness. […] Each experiment was performed in triplicate and each point plotted represents the average of tests conducted using 40 to 70 seeds. […] Thus, overexpression of PYL2^CA3 activates the ABA-regulated seed dormancy pathway.
In order to assay dormancy of seeds for Columbia, 35S::GFP-PYL2, and 35S::GFP-PYL2^CA3 were divided into two portions and surface sterilized using chlorine gas (prepared in situ using bleach and HCl). One portion was stratified on ⅓ MS agar plates for 6 days at 4° C. in darkness and the second portion, which was maintained at room temperature, was seeded six days later on the ⅓ MS agar plates; both samples were transferred to a 23° C. light-tight growth chamber and germination scored at 24 hour periods. The homozygous 35S::GFP-PYL2 and 35S::GFP-[…] seeds used in these experiments were ˜5- and ˜6-months post-harvest respectively at the time of the experiment shown in FIG. 12.

With `CC1=CC(=O)CC(C)(C)[C@@]1(O)/C=C/C(C)=C\C(=O)O` [ABA, Abscisic acid], the “interaction between PYR1 and HAB1” value in [1] is “promotes a strong interaction”.
As to `O=S(=O)(NCc1ccccn1)c1ccc(Br)c2ccccc12` [pyrabactin], in test [2], the “activity on PYL5” value was “weak partial-agonist/antagonist activity”. Moreover, the “ABA-responsive gene transcription in seeds” value in [3] was “essentially activates the full complement of ABA-responsive gene transcription in seeds”. Besides, in test [4], the “agonist activity on PYL1” value is listed as “strong agonist activity”. Further, the “agonist activity on PYR1” value in test [5] is listed as “strong agonist activity”. Further, the “activity on PYL2” value in test [6] is listed as “weak partial-agonist/antagonist activity”.
For the molecule “PYR1: wild-type Arabidopsis ABA receptor PYR1 (SEQ ID NO:1)”, the “PYR1-HAB1 interaction in the absence of added ABA” value in [7] is recorded as “does not bind HAB1”.

B1: PYL2: wild-type ABA receptor PYL2 (SEQ ID NO:3), overexpressed as control (protein, listed as Arabidopsis thaliana)
chain: T5 sequence (O80992 1-190)
modifications: thale cress PYR/PYL receptor, abscisic acid receptor PYL2, PYR1-like protein 2 (PYL2), ABI1-binding protein 6 (ABIP6), regulatory components of ABA receptor 14 (RCAR14), Bet v I allergen family protein, At2g26040, T19L18.15
With B1, in test [8], the “NaCl resistance of aba2 mutant seed germination” value was “unable to suppress” and the “paclobutrazol resistance of aba2 mutant seed germination” value is “unable to suppress”. Besides, the “seed hyperdormancy (stratification dependent germination)” value in [9] is recorded as “not”.
